Laboratory results from patent US20260008770A1, “CBL-B INHIBITORS AND METHODS OF USES THEREOF” (Insilico Medicine IP Limited, priority 2022, published 2026).

target: Cbl-b protein (CBL-B, GST-Tag) (Homo sapiens (Human), UniProt Q13191); experiment: HTRF based binding assay, affinity to Cbl-b protein; details: not given
Sequence (Q13191 whole entry): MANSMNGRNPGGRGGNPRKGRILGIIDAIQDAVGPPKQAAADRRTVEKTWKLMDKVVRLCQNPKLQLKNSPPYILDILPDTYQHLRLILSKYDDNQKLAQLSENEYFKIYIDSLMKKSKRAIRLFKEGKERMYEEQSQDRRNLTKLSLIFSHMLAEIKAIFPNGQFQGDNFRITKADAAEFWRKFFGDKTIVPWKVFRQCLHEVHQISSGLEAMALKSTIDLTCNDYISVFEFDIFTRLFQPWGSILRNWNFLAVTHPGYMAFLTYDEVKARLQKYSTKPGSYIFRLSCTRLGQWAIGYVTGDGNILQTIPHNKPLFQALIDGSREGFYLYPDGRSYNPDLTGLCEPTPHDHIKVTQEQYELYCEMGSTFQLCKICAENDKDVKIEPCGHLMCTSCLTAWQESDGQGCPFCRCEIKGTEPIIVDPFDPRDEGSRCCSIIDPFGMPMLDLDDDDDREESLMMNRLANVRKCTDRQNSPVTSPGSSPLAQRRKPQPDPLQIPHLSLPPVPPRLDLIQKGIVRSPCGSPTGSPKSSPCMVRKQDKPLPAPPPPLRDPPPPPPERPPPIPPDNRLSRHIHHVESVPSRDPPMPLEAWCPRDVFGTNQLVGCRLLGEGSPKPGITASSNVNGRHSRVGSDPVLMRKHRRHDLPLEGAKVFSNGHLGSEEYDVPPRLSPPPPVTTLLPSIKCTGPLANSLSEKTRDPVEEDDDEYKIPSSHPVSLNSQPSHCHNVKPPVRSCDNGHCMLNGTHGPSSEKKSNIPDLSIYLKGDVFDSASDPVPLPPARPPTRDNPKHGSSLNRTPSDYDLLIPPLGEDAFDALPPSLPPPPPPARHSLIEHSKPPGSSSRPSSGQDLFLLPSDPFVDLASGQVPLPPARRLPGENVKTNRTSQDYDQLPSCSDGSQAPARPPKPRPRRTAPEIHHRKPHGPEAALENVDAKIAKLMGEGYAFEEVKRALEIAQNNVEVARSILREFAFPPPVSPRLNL

Row | SMILES | IC50 [µM]
1 | [2H]C([2H])([2H])n1cnnc1C1(c2ccnc(-n3cnc4c(C(F)(F)F)cc(CN5CCC[C@H](C)C5)cc4c3=O)c2)CC(C)C1 (some centres unmarked) [Example 121] | < 0.02
2 | Cn1cnnc1[C@]1(c2cccc(-n3cc4c(C(F)(F)F)cc(CN5CCC[C@H](OC(F)F)C5)cc4n3)c2)C[C@H](C)C1 [Example 74] | 0.05 to 0.5
3 | CNC(=O)c1cc(-n2cc3c(C(F)(F)F)cc(CN4CCC[C@H](C)C4)cc3n2)cc(C2(c3nncn3C)CC(C)C2)c1 (some centres unmarked) [Example 43] | 0.05 to 0.5
4 | CC1CC(c2cccc(N3CCc4c(cc(CN5CC[C@H](F)C5)cc4C(F)(F)F)C3=O)c2)(c2nncn2C)C1 (stereo partly drawn) [Example 1, (S)-7-((3-fluoropyrrolidin-1-yl)methyl)-2-(3-(3-methyl-1-(4-methyl-4H-1,2,4-triazol-3-yl)cyclobutyl)phenyl)-5-(trifluoromethyl)-3,4-dihydroisoquinolin-1(2H)-one] | 0.05 to 0.5
5 | C[C@H]1CCCN(Cc2cc(C(F)(F)F)c3cn(-c4cccc(C5(c6nncn6C)CC(=O)C5)c4)nc3c2)C1 [Example 68] | 0.05 to 0.5
6 | CC1CC(c2cccc(-c3n[nH]c4c(CN5CCC[C@H](C)C5)cc(C(F)(F)F)nc34)c2)(c2nncn2C)C1 (stereo partly drawn) [Example 5, (S)-3-(3-(3-methyl-1-(4-methyl-4H-1,2,4-triazol-3-yl)cyclobutyl)phenyl)-7-((3-methylpiperidin-1-yl)methyl)-5-(trifluoromethyl)-1H-pyrazolo[4,3-b]pyridine] | 0.05 to 0.5
7 | C[C@H]1CCCN(Cc2cc(C(=O)Nc3cccc([C@H](c4nncn4C)C4COC4)c3)cc(C(F)(F)F)c2)C1 [Example 27] | 0.05 to 0.5
8 | C#Cc1cc([C@]2(c3nncn3C)C[C@@H](C)C2)cc(-n2cnc3ccc(CN4CCC[C@H](C)C4)cc3c2=O)n1 [Example 97] | 0.05 to 0.5
9 | COCC1CC(c2cccc(-n3cnc4c(C(F)(F)F)cc(CN5CCC[C@H](C)C5)cc4c3=O)c2)(c2nncn2C)C1 (some centres unmarked) [Example 76] | 0.05 to 0.5
10 | CC1CC(c2cccc(-n3nc(C(F)(F)F)c4ccc(CN5CCC[C@H](C)C5)cc4c3=O)c2)(c2nncn2C)C1 (some centres unmarked) [Example 9] | 0.05 to 0.5
11 | C[C@H]1CCCN(Cc2cc(C(F)(F)F)c3cnn(-c4cc([C@]5(c6nncn6C)C[C@H](C)C5)ccn4)c(=O)c3c2)C1 [Example 65] | 0.5 to 1
12 | CC1CC(c2cccc(-c3nc4cc(CN5CCO[C@H](C)C5)cc(C(F)(F)F)c4s3)c2)(c2nncn2C)C1 (some centres unmarked) [Example 11] | 0.05 to 0.5
13 | C[C@H]1CCCN(Cc2cc(C(=O)Nc3cccc(C(c4nncn4C)C4CCC4)c3)cc(C(F)(F)F)c2)C1 (some centres unmarked) [Example 31] | 0.05 to 0.5
14 | C[C@H]1CCCN(Cc2cc(C(F)(F)F)c3ncn(-c4cc([C@]5(c6nncn6C)C[C@@H](CF)C5)ccn4)c(=O)c3c2)C1 [Example 114] | 0.02 to 0.05
15 | C[C@H]1CCCN(Cc2cc(C(F)(F)F)c3ncn(-c4cc([C@]5(c6nncn6C6CCC6)C[C@@H](C)C5)ccn4)c(=O)c3c2)C1 [Example 110] | 0.05 to 0.5
16 | C[C@H]1CCCN(Cc2cc(C(F)(F)F)c3ncn(-c4cc(C5(Cc6nncn6C)COC5)ccn4)c(=O)c3c2)C1 [Example 35] | 0.05 to 0.5
17 | CC1CC(c2cc(C#N)cc(-n3cc4c(C(F)(F)F)cc(CN5CCC[C@H](C)C5)cc4n3)c2)(c2nncn2C)C1 (some centres unmarked) [Example 53] | 0.05 to 0.5
18 | CC1CC(c2ccc(F)c(-n3cc4c(C(F)(F)F)cc(CN5CCC[C@H](C)C5)cc4n3)c2)(c2nncn2C)C1 (some centres unmarked) [Example 72] | 0.02 to 0.05
19 | C[C@H]1CCCN(Cc2cc3c(=O)n(-c4cccc([C@]5(c6nncn6C)C[C@@H](C)C5)c4)cnc3c(C(F)(F)F)n2)C1 [Example 62] | 0.02 to 0.05

Row | SMILES | IC50 [µM]
20 | C[C@H]1CCCN(Cc2cc(C(F)(F)F)c3cn(-c4cc([C@]5(c6nncn6C)C[C@H](C)C5)ccn4)nc3c2)C1 [Example 71] | 0.05 to 0.5
21 | CC1CC(c2cccc(-n3ncc4c(C(F)(F)F)cc(CN5CCC(F)(F)[C@H](C)C5)cc4c3=O)c2)(c2nncn2C)C1 (some centres unmarked) [Example 14] | 0.05 to 0.5
22 | C[C@H]1CCCN(Cc2cc(C(F)(F)F)c3cnn(-c4cc([C@]5(c6nncn6C)C[C@@H](C)C5)ccn4)c(=O)c3c2)C1 (single isomer, unassigned) [Example 55] | 0.5 to 1
23 | CC1CC(c2cccc(-n3cc4c(C(F)(F)F)cc(CN5C[C@@H](C)C[C@H](C)C5)cc4n3)c2)(c2nncn2C)C1 (some centres unmarked) [Example 86] | 0.05 to 0.5
24 | CC1CC(c2cc(CO)cc(-n3cc4c(C(F)(F)F)cc(CN5CCC[C@H](C)C5)cc4n3)c2)(c2nncn2C)C1 (some centres unmarked) [Example 60] | 0.05 to 0.5
25 | C#C[C@H]1CCCN(Cc2cc(C(F)(F)F)c3ncn(-c4cc([C@]5(c6nncn6C)C[C@@H](C)C5)ccn4)c(=O)c3c2)C1 [Example 61] | 0.02 to 0.05
26 | CC1CC(c2cccc(-c3nc4cc(CN5CCC[C@H](C)C5)cc(C(F)(F)F)c4n3C)c2)(c2nncn2C)C1 (some centres unmarked) [Example 8] | 0.05 to 0.5
27 | CC1CC(c2cccc(-n3ncc4c(C(F)(F)F)cc(CN5CCC[C@H](C)C5)cc4c3=O)c2)(c2nncn2C)C1 (some centres unmarked) [Example 6] | 0.02 to 0.05
28 | CC1CC(c2cccc(-n3cc4c(C(F)(F)F)cc(CN5CCC[C@@](C)(O)C5)cc4n3)c2)(c2nncn2C)C1 (some centres unmarked) [Example 89] | 0.05 to 0.5
29 | CC1CC(c2ccnc(-n3cnc4c(C(F)(F)F)c(CN5CCC[C@H](C)C5)[nH]c4c3=O)c2)(c2nncn2C)C1 (some centres unmarked) [Example 46] | 0.05 to 0.5
30 | CC1CC(c2cccc(NC(=O)c3cc(CN4CCC[C@H](C)C4)cc4c3OC(F)(F)O4)c2)(c2nncn2C)C1 (some centres unmarked) [Example 25] | 0.02 to 0.05
31 | C[C@H]1CCCN(Cc2cc(C(F)(F)F)c3cnn(-c4cccc(C5(Cc6nncn6C)COC5)c4)c(=O)c3c2)C1 [Example 13] | 0.5 to 1
32 | Cn1cnnc1[C@]1(c2ccnc(-n3ncc4c(C(F)(F)F)cc(CN5CCC6(CC6)C5)cc4c3=O)c2)C[C@H](C)C1 [Example 36] | 0.02 to 0.05
33 | C[C@H]1CCCN(Cc2cc(C(F)(F)F)c3cn(-c4cc([C@]5(c6nncn6C)C[C@@H](C)C5)ccn4)nc3c2)C1 (single isomer, unassigned) [Example 58] | 0.02 to 0.05
34 | CC1=CCCN(Cc2cc(C(F)(F)F)c3cn(-c4cccc(C5(c6nncn6C)CC(C)C5)c4)nc3c2)C1 (centres unmarked) [Example 79] | 0.02 to 0.05
35 | CC1CC(c2cccc(NC(=O)c3cc(CN4CCC[C@H](C)C4)cc(C(F)(F)F)c3)c2)(c2nncn2C)C1 (some centres unmarked) [Example 30] | 0.02 to 0.05
36 | C[C@H]1CCCN(Cc2cc(C(F)(F)F)c3cn(-c4cccc(C5(c6nncn6C)CC(F)(F)C5)c4)nc3c2)C1 [Example 87] | 0.02 to 0.05
37 | Cn1cnnc1[C@]1(c2ccnc(-n3ncc4c(C(F)(F)F)cc(CN5CCOC6(CCC6)C5)cc4c3=O)c2)C[C@H](C)C1 [Example 39] | 0.5 to 1
38 | CC1CC(c2cncc(-n3ncc4c(C(F)(F)F)cc(CN5CCC[C@H](C)C5)cc4c3=O)c2)(c2nncn2C)C1 (some centres unmarked) [Example 54] | 0.05 to 0.5

same assay, conditions: HTRF binding, CBL-B (GST-Tag), fluorescence labeled Cbl-b binding probe

Row | SMILES | IC50 [µM]
39 | CC1CC(c2cc(C(N)=O)cc(-n3cc4c(C(F)(F)F)cc(CN5CCC[C@H](C)C5)cc4n3)c2)(c2nncn2C)C1 (some centres unmarked) [Example 52] | < 0.02
40 | CC1CC(c2cccc(-n3ncc4c(C(F)(F)F)cc(CN5CCO[C@H](C)C5)cc4c3=O)c2)(c2nncn2C)C1 (some centres unmarked) [Example 10] | > 1
41 | CC1CC(c2cc(OCF)nc(-n3ncc4c(C(F)(F)F)cc(CN5CCC[C@H](C)C5)cc4c3=O)c2)(c2nncn2C)C1 (some centres unmarked) [Example 38] | < 0.02
42 | C[C@H]1CCCN(Cc2cc(C(F)(F)F)c3cn(-c4cccc(C5(C(F)c6nncn6C)COC5)c4)nc3c2)C1 (some centres unmarked) [Example 57] | < 0.02
43 | C[C@H]1CCCN(Cc2ccc3ncn(-c4cc([C@]5(c6nncn6C)C[C@@H](C)C5)cc(OCF)n4)c(=O)c3c2)C1 [Example 112] | < 0.02
44 | Cn1cnnc1CC1(c2cccc(-n3cc4c(C(F)(F)F)cc(CN5CCC[C@H](C6CC6)C5)cc4n3)c2)COC1 [Example 64] | < 0.02
45 | [2H]c1nnc(C2(c3ccnc(-n4cnc5c(C(F)(F)F)cc(CN6CCC[C@H](C)C6)cc5c4=O)c3)CC(C)C2)n1C(F)F (some centres unmarked) [Example 113] | < 0.02
46 | CC(c1ccc2ncn(-c3cc([C@]4(c5nncn5C)C[C@@H](C)C4)cc(OCF)n3)c(=O)c2c1)N1CCC[C@H](C)C1 (some centres unmarked) [Example 95] | < 0.02
47 | C[C@H]1CCCN(Cc2cc(C(F)(F)F)c3ncn(-c4cc([C@]5(c6nncn6C(F)F)C[C@@H](C)C5)ccn4)c(=O)c3c2)C1 [Example 48] | < 0.02
48 | C=Cc1cc(C2(c3nncn3C)CC(C)C2)cc(-n2cnc3c(C(F)(F)F)cc(CN4CCC[C@H](C)C4)cc3c2=O)n1 (some centres unmarked) [Example 49] | < 0.02
49 | CC1CN(Cc2cc(C(F)(F)F)c3ncn(-c4cc([C@]5(c6nncn6C)C[C@@H](C)C5)cc(OCF)n4)c(=O)c3c2)CCC1(F)F (some centres unmarked) [Example 109] | < 0.02
50 | CC1CC(c2cccc(NC(=O)c3cc(CN4CCC[C@H](C)C4)cc4c3OCCC4(F)F)c2)(c2nncn2C)C1 (some centres unmarked) [Example 24] | < 0.02
51 | CC1CC(c2cc(OC(F)F)nc(-n3cnc4c(C(F)(F)F)cc(CN5CCC[C@H](C)C5)cc4c3=O)c2)(c2nncn2C)C1 (some centres unmarked) [Example 117] | < 0.02
52 | C[C@H]1CCCN(Cc2cc(C(F)(F)F)c3ncn(-c4cc([C@]5(c6nncn6C)C[C@@H](C)C5)ccn4)c(=O)c3c2)C1 [Example 78] | < 0.02
53 | C[C@H]1CCCN(Cc2cc(C(F)(F)F)c3cn(-c4cccc(C5(Cc6nncn6C)COC5)c4)nc3c2)C1 [Example 88] | < 0.02
54 | C#C[C@H]1CCCN(Cc2cc(C(F)(F)F)c3cn(-c4cccc(C5(Cc6nncn6C)COC5)c4)nc3c2)C1 [Example 69] | < 0.02
55 | C[C@@H]1CN(Cc2ccc3ncn(-c4cc([C@]5(c6nncn6C)C[C@@H](C)C5)cc(OCF)n4)c(=O)c3c2)CCC1F (some centres unmarked) [Example 123] | < 0.02
56 | C[C@H]1CCCN(Cc2cc(C(F)(F)F)c3sc(-c4cccc(C5(Cc6nncn6C)COC5)c4)nc3c2)C1 [Example 16] | < 0.02
57 | C[C@H]1CCCN(Cc2ccc3ncn(-c4cc([C@]5(c6nncn6C(F)F)C[C@@H](C)C5)cc(OCF)n4)c(=O)c3c2)C1 [Example 124] | < 0.02
58 | C[C@H]1CCCN(Cc2cc(C(F)(F)F)c3cn(-c4cc(C5(Cc6nncn6C)COC5)cc5c4OCC5)nc3c2)C1 [Example 75] | < 0.02
59 | C[C@H]1CCCN(Cc2cc(C(=O)Nc3cccc([C@@H](c4nncn4C)C4COC4)c3)cc(C(F)(F)F)c2)C1 [Example 26] | > 1
